Converted amounts (≈) assume the structure as drawn. Counter-ions that a name gives are not always drawn. Like-named read-outs stand apart in the source and are kept apart here.
Key:
[1] = cited from earlier work
[2] = pH value of 1% w/v aqueous ziprasidone suspension; format: physicochemical; details: 1% w/v aqueous ziprasidone suspension at 25° C.
Method: This pH value corresponds to a pH value of ziprasidone in water determined on a 1% w/v aqueous ziprasidone suspension at 25° C.

Compound: O=C1Cc2cc(CCN3CCN(c4nsc5ccccc45)CC3)c(Cl)cc2N1 [ziprasidone hydrochloride]
- solubility in water [1]: 0.00718 mg/mL

Compound: O=C1Cc2cc(CCN3CCN(c4nsc5ccccc45)CC3)c(Cl)cc2N1 [ziprasidone]
- pH value of ziprasidone in water [2]: ~3.2
- solubility in water ([1]; 25° C.): 2.13 mg/mL (≈ 5.16 mM)

Compound: ziprasidone mesylate trihydrate
- solubility in water [1]: 0.013 mg/mL

Reference: US20250049709A1, “ZIPRASIDONE FORMULATIONS” (BELOTECA, INC., priority 2021, published 2025)
